Assay results published in patent US10189809B2, “SGC stimulators” (Ironwood Pharmaceuticals, Inc., priority 2010, dated 2019).
Read-outs that look alike come from different tables or passages of the source.

How the values were obtained:
[1] = biological target: T1, soluble guanylate cyclase (sGC) (Homo sapiens (Human), UniProt Q02108+Q02153); test: sGC-HEK-cGMP assay run in the absence of SNP (HEK WC assay); format: cell-based; conditions: compound at 30 μM, absence of SNP
Procedure: Human embryonic kidney cells (HEK293), endogenously expressing soluble guanylate cyclase (sGC), were used to evaluate the activity of test compounds. Compounds stimulating the sGC receptor should cause an increase in the intracellular concentration of cGMP. HEK 293 cells were seeded in Dulbecco's Modification of Eagle's Medium supplemented with fetal bovine serum (10% final) and L-glutamine (2 mM final) in a 200 μL volume at a density of 1×10^5 cells/well in a poly-D-lysine coated 96 well flat bottom plate and grown overnight at 37° C. Medium was aspirated and cells were washed with 1× Hank's Buffered Saline Salt Solution (200 μL). Cells were then incubated for 15 minutes at 37° C. with 0.5 mM 3-isobutyl-1-methylxanthine (200 μL). Test article was then added to the assay mixture (2 μL) and incubated at 37° C. for 10 minutes. After the 10 minute incubation, the assay mixture was aspirated and 0.1M HCl (200 μL) was added to the cells. The plate was incubated at 4° C. for 30 minutes in the 0.1M HCl to stop the reaction and lysed the cells. The plates were then centrifuged at 1,200 g for 5 minutes at room temperature. Supernatants were collected and transferred to a new flat bottom 96 well plate for analysis. Vehicle controls were carried out using DMSO (1%). A known sGC stimulator, BAY 41-2272, was used as the positive control. Samples were diluted with an equal volume of 1 M Ammonium Acetate (pH 7) to neutralize samples for better chromatography. A 2× cGMP standard curve was prepared in 0.1 M HCl and then diluted with an equal volume of 1 M Ammonium Acetate, with the following final concentrations in nM: 1024, 512, 256, 128, 64, 32, 16, 8, 4, 2, 1. cGMP concentrations were determined from each sample using the LC/MS conditions (Table 2 below) and calculated standard curve. EC50 values were calculated from concentration-response curves generated with GraphPad Prism Software.

[2] = biological target: T1, soluble guanylate cyclase (sGC); test: sGC-HEK-cGMP assay run with SNP incubation (HEK WC assay); format: cell-based; conditions: for HEK WC Assay (fold increase at 30 μM in the presence of 10 μM SNP): compound at 30 μM; for EC50: in the presence of 10 uM SNP
Outline: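 HEK293 cells with endogenous sGC were pretreated with 0.5 mM IBMX for 15 min at 37 °C, then exposed to test compound plus sodium nitroprusside for 10 min at 37 °C.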

[3] = read-out: HEK WC Assay (% Emax at 1 μM with 10 uM SNP)
[4] = read-out: HEK WC Assay (% Emax at 10 μM with 10 uM SNP)
[5] = read-out: HEK WC Assay (% Emax at 30 μM with 10 uM SNP)

T1 sequence (Q02153 whole entry): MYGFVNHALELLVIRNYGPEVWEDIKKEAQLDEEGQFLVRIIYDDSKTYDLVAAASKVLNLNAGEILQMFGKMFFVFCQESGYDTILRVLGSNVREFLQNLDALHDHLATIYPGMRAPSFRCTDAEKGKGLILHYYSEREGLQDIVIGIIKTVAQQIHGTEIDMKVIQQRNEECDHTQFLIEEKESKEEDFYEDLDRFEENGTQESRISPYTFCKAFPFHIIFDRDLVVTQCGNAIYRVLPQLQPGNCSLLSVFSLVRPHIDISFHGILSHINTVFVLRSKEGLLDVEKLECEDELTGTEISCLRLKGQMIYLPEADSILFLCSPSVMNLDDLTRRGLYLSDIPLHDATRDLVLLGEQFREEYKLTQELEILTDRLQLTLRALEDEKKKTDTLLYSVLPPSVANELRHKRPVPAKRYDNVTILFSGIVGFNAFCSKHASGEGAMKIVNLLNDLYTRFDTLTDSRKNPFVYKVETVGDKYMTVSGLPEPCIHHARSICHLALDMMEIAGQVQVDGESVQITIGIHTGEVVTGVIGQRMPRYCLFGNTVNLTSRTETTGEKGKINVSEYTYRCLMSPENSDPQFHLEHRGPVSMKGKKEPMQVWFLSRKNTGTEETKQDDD
T1 sequence (Q02108 whole entry): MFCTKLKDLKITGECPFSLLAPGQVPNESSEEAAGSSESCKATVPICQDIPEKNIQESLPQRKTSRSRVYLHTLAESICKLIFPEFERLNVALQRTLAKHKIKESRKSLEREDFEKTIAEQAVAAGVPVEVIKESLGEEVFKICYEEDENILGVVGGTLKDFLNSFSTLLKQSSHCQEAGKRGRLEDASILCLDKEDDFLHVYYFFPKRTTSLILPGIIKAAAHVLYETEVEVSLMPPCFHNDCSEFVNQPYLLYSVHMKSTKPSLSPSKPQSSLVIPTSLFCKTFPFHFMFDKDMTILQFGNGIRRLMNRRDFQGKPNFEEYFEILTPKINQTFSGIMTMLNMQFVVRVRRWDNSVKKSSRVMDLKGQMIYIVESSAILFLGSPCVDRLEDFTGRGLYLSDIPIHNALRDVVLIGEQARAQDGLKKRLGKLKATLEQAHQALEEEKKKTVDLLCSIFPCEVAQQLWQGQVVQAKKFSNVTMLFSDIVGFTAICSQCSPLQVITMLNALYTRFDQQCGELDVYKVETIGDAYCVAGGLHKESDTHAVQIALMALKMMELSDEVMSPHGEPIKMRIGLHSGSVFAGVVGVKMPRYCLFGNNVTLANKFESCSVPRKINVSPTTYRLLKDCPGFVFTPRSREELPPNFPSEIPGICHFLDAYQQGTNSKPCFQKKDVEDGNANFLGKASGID

SMILES | HEK WC Assay (fold increase at 30 μM in the absence of SNP) [1] | HEK WC Assay (fold increase at 30 μM in the presence of 10 μM SNP) [2] | EC50 [2] [µM] | Emax [2, 3] [%] | Emax [2, 4] [%] | Emax [2, 5] [%]
Oc1nc(-c2cc(-c3ccon3)n(Cc3ccccc3F)n2)ncc1Br [Compound I-192] | D (D = 5 to <10 fold increase) | E (E = 10 to <20 fold increase) | < 20 | 20 to 40 | 40 to 60 | 40 to 60
Nc1nc(-c2cc(-c3ccon3)n(Cc3ccccc3F)n2)ncc1NC(=O)c1cccc(O)n1 [Compound I-193] | E (E = 10 to <20 fold increase) | E (E = 10 to <20 fold increase) | < 20 | 10 to 20 | 40 to 60 | 60 to 80
Fc1ccccc1Cn1nc(-c2ncccn2)cc1-c1ccon1 [Compound I-195] | D (D = 5 to <10 fold increase) | E (E = 10 to <20 fold increase) | < 20 | 40 to 60 | 60 to 80 | 60 to 80
Oc1nc(-c2cc(-c3ncco3)n(Cc3ccccc3F)n2)ncc1F [Compound I-197] | C (C = 2 to <5 fold increase) | E (E = 10 to <20 fold increase) | 20 to 40 | 10 to 20 | 40 to 60 | 40 to 60
Fc1cccc(Cn2nc(-c3ncccn3)cc2-c2ccon2)c1F [Compound I-198] | D (D = 5 to <10 fold increase) | E (E = 10 to <20 fold increase) | < 20 | 40 to 60 | 40 to 60 | 60 to 80
Fc1cccc(F)c1Cn1nc(-c2ncccn2)cc1-c1ccon1 [Compound I-199] | C (C = 2 to <5 fold increase) | E (E = 10 to <20 fold increase) | 20 to 40 | 10 to 20 | 20 to 40 | 40 to 60
Clc1ccccc1Cn1nc(-c2ncccn2)cc1-c1ccon1 [Compound I-200] | B (B = 1 to <2 fold increase) | C (C = 2 to <5 fold increase) | 300 to 600 | 0 to 10 | 0 to 10 | 0 to 10
FC(F)(F)c1ccccc1Cn1nc(-c2ncccn2)cc1-c1ccon1 [Compound I-201] | B (B = 1 to <2 fold increase) | B (B = 1 to <2 fold increase) |  | 0 to 10 | 0 to 10 | 0 to 10
Fc1cccc(Cn2nc(-c3ncccn3)cc2-c2ccon2)c1 [Compound I-202] | C (C = 2 to <5 fold increase) | E (E = 10 to <20 fold increase) | < 20 | 20 to 40 | 40 to 60 | 40 to 60
Cc1nc(-c2cc(-c3ccon3)n(Cc3ccccc3F)n2)nc(O)c1F [Compound I-203] | B (B = 1 to <2 fold increase) | D (D = 5 to <10 fold increase) | 60 to 100 | 0 to 10 | 10 to 20 | 20 to 40
c1cnc(-c2cc(-c3ccon3)n(Cc3cscn3)n2)nc1 [Compound I-204] | B (B = 1 to <2 fold increase) | C (C = 2 to <5 fold increase) |  | 0 to 10 | 0 to 10 | 0 to 10
Oc1ccccc1Cn1nc(-c2ncccn2)cc1-c1ccon1 [Compound I-207] | B (B = 1 to <2 fold increase) | C (C = 2 to <5 fold increase) | 900 to 1200 | 0 to 10 | 0 to 10 | 0 to 10
c1cnc(-c2cc(-c3ccon3)n(Cc3cncnc3)n2)nc1 [Compound I-208] | B (B = 1 to <2 fold increase) | D (D = 5 to <10 fold increase) | 100 to 300 | 0 to 10 | 10 to 20 | 10 to 20
CC(C)(O)C(=O)Nc1cnc(-c2cc(-c3ccon3)n(Cc3ccccc3F)n2)nc1N [Compound I-209] | C (C = 2 to <5 fold increase) | E (E = 10 to <20 fold increase) | 20 to 40 | 10 to 20 | 20 to 40 | 40 to 60
OCCc1cnc(-c2cc(-c3ccon3)n(Cc3ccccc3F)n2)nc1O [Compound I-210] | C (C = 2 to <5 fold increase) | D (D = 5 to <10 fold increase) | 60 to 100 | 0 to 10 | 10 to 20 | 20 to 40
Nc1nc(-c2cc(-c3ccon3)n(Cc3ccccc3F)n2)ncc1NC(=O)c1ccccc1OC(F)(F)F [Compound I-211] | D (D = 5 to <10 fold increase) | E (E = 10 to <20 fold increase) | 20 to 40 | 20 to 40 | 20 to 40 | 40 to 60
Nc1nc(-c2cc(-c3ccon3)n(Cc3ccccc3F)n2)ncc1NC(=O)CN1C(=O)c2ccccc2C1=O [Compound I-212] | D (D = 5 to <10 fold increase) | E (E = 10 to <20 fold increase) | < 20 | 60 to 80 | 60 to 80 | 60 to 80
NCC(=O)Nc1cnc(-c2cc(-c3ccon3)n(Cc3ccccc3F)n2)nc1N [Compound I-213] | D (D = 5 to <10 fold increase) | E (E = 10 to <20 fold increase) | 60 to 100 | 0 to 10 | 10 to 20 | 20 to 40
Nc1nc(-c2cc(-c3ccon3)n(Cc3ccccc3F)n2)ncc1NC(=O)c1cccc(C(F)(F)F)c1 [Compound I-215] | E (E = 10 to <20 fold increase) | F (F = 20 to <30 fold increase) | < 20 | 80 to 100 | 80 to 100 | 80 to 100
Nc1nc(-c2cc(-c3ccon3)n(Cc3ccccc3F)n2)ncc1NC(=O)C1(c2ccccc2)CCC1 [Compound I-218] | D (D = 5 to <10 fold increase) | E (E = 10 to <20 fold increase) | 20 to 40 | 40 to 60 | 40 to 60 | 20 to 40
Nc1nc(-c2cc(-c3ccon3)n(Cc3ccccc3F)n2)ncc1NC(=O)[C@@H]1CCCN1C(=O)C(F)(F)F [Compound I-219] | D (D = 5 to <10 fold increase) | E (E = 10 to <20 fold increase) | < 20 | 20 to 40 | 60 to 80 | 60 to 80
c1cnc(-c2cc(-c3ccon3)n(Cc3cnccn3)n2)nc1 [Compound I-221] | B (B = 1 to <2 fold increase) | C (C = 2 to <5 fold increase) |  | 0 to 10 | 0 to 10 | 10 to 20
Nc1nc(-c2cc(-c3ccon3)n(Cc3ccccc3F)n2)ncc1NCc1ccccc1 [Compound I-223] | C (C = 2 to <5 fold increase) | E (E = 10 to <20 fold increase) | 100 to 300 | 0 to 10 | 10 to 20 | 10 to 20
O=S(=O)(c1cnc(-c2cc(-c3ccon3)n(Cc3ccccc3F)n2)nc1O)N1CCOCC1 [Compound I-224] | C (C = 2 to <5 fold increase) | E (E = 10 to <20 fold increase) | < 20 | 20 to 40 | 40 to 60 | 40 to 60
